TGI data for seven compounds are collected here from PubChem BioAssay (NCI).

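Growth conditions: 96-well plates. Treatment: test compound, 48 hours, 5 concentrations. Analysis: linear interpolation between bracketing concentrations; unreached endpoints set to highest concentration. TGI marks complete inhibition of growth.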 Where only a bound is given, the exact number is not on record here.

Test systems include 786-0 renal; CCRF-CEM leukemia; HCC-2998 colon; HCT-15 colon; HS 578T breast; IGROV1 ovarian; K-562 leukemia; LOX IMVI melanoma; MDA-MB-435; OVCAR-3 ovarian; OVCAR-4 ovarian; OVCAR-8 ovarian; PC-3 prostate; SF-295 CNS; SK-MEL-2 melanoma; SK-MEL-28 melanoma; SNB-75 CNS; TK-10 renal; HT29 colon; HL-60(TB) leukemia.
Holding throughout (assay): DTP human tumour cell line panel, 48 h

One may read the TGI as the concentration giving total growth inhibition. Lower therefore signals greater sensitivity of the cells. `CC(=O)N(O)[C@@H]1CC[C@H](n2cnc3c(N)ncnc32)C1`: the TGI in the test on 786-0 renal, in the test with CCRF-CEM leukemia, in the test with HCC-2998 colon, in the test with HCT-15 colon, in the test with HS 578T breast and with IGROV1 ovarian was over 100 µM in each case. The TGI in the test on K-562 leukemia, in the test with LOX IMVI melanoma, in the test on MDA-MB-435, in the test with OVCAR-3 ovarian, in the test on OVCAR-4 ovarian and with OVCAR-8 ovarian was over 100 µM throughout. The TGI in the test on PC-3 prostate, with SF-295 CNS, in the test with SK-MEL-2 melanoma, in the test with SK-MEL-28 melanoma, in the test on SNB-75 CNS and in the test on TK-10 renal was over 100 µM throughout.
For the compound `c1csc(-c2cc(-c3cccs3)c(-c3cccs3)s2)c1`, the TGI with 786-0 renal, with CCRF-CEM leukemia, with HCC-2998 colon, in the test with HCT-15 colon, in the test with HS 578T breast and with HT29 colon was over 100 µM throughout. The TGI in the test with IGROV1 ovarian, in the test on K-562 leukemia, with MDA-MB-435, with OVCAR-3 ovarian, in the test with OVCAR-4 ovarian and in the test with OVCAR-8 ovarian was over 100 µM each time. Moreover, the TGI in the test with PC-3 prostate, with SF-295 CNS, in the test on SK-MEL-28 melanoma, in the test with SNB-75 CNS and in the test on TK-10 renal was over 100 µM throughout.
In the case of `O=c1[nH]c(Nc2cc(Cl)cc(Cl)c2)nc2nc[nH]c12`, the TGI in the test with 786-0 renal was over 75 µM; in the test with CCRF-CEM leukemia, over 75 µM; in the test with HCC-2998 colon, over 75 µM; with HCT-15 colon, over 75 µM; with HS 578T breast, 68.5 µM; with HT29 colon, over 75 µM. Further, the TGI with IGROV1 ovarian, with K-562 leukemia, in the test on LOX IMVI melanoma, in the test with MDA-MB-435, in the test with OVCAR-3 ovarian and in the test on OVCAR-4 ovarian was over 75 µM each time. The TGI in the test on OVCAR-8 ovarian, with PC-3 prostate, in the test on SF-295 CNS, in the test with SK-MEL-2 melanoma, in the test with SNB-75 CNS and with TK-10 renal was over 75 µM in each case.
`CCCCN1C(=O)c2c(-c3sccc3N)sc(-c3sccc3N)c2C1=O`: the TGI in the test with 786-0 renal is 21.1 µM; in the test with CCRF-CEM leukemia, over 31 µM; with HCC-2998 colon it was over 100 µM; with HCT-15 colon, over 100 µM; in the test on HS 578T breast, 83.6 µM; in the test with HT29 colon, 44.5 µM. The TGI was over 100 µM with IGROV1 ovarian; over 100 µM with K-562 leukemia; over 100 µM in the test on LOX IMVI melanoma; over 100 µM with MDA-MB-435; 78.5 µM in the test with OVCAR-3 ovarian; 45.3 µM in the test on OVCAR-4 ovarian. Moreover, the TGI in the test with OVCAR-8 ovarian was over 72.1 µM; with PC-3 prostate it was over 100 µM; in the test on SF-295 CNS, 58 µM; with SK-MEL-2 melanoma, over 100 µM; with SK-MEL-28 melanoma, 36.7 µM; with SNB-75 CNS it was 34.6 µM. This compound also returned a TGI in the test on TK-10 renal of 72.5 µM.
In the case of `COC(=O)c1ccc(C)cc1/C=C1\Cc2ccc(C)cc2C1=O`, the TGI with 786-0 renal was 50 µM; in the test on CCRF-CEM leukemia, over 100 µM; with HCC-2998 colon, 38.4 µM; with HCT-15 colon, 43.1 µM; with HL-60(TB) leukemia, 18.2 µM; in the test with HS 578T breast, 59.4 µM. Also, the TGI in the test on HT29 colon was determined as 40.9 µM; in the test on IGROV1 ovarian it was 45.8 µM; in the test on K-562 leukemia, 42.8 µM; in the test on LOX IMVI melanoma, 25.6 µM; in the test with MDA-MB-435 it was 20.2 µM; in the test with OVCAR-3 ovarian, 31.2 µM. Besides, the TGI in the test on OVCAR-4 ovarian is 46.1 µM; in the test on OVCAR-8 ovarian it was 59 µM; with PC-3 prostate, over 100 µM; in the test with SF-295 CNS, 41.1 µM; in the test with SK-MEL-28 melanoma it was 34.6 µM; in the test on SNB-75 CNS it was 44 µM. The same compound registered a TGI with TK-10 renal of 42.4 µM.
Consider `CC(C)(C)c1cc(C2=NN(c3ccccc3)C(c3ccccc3)C2)cc(C(C)(C)C)c1O` (centres undefined), for which the TGI in the test on 786-0 renal, in the test on CCRF-CEM leukemia, in the test on HCT-15 colon, with HL-60(TB) leukemia, in the test with HS 578T breast and with HT29 colon was over 100 µM in each case. The TGI in the test with IGROV1 ovarian, in the test on K-562 leukemia, in the test on LOX IMVI melanoma, in the test on MDA-MB-435, with OVCAR-3 ovarian and with OVCAR-4 ovarian was over 100 µM throughout. Besides, the TGI with OVCAR-8 ovarian, in the test on PC-3 prostate, in the test with SF-295 CNS, with SK-MEL-2 melanoma, in the test on SK-MEL-28 melanoma and in the test on SNB-75 CNS was over 100 µM throughout. In the test on TK-10 renal, the TGI is over 100 µM.
Take `CN1C(=O)[C@@H]2[C@@H]3c4ccccc4N(S(=O)(=O)C(F)(F)F)[C@@H]3c3[nH]c4ccccc4c3[C@@H]2C1=O`: the TGI in the test on 786-0 renal, with CCRF-CEM leukemia, in the test on HCC-2998 colon, in the test with HCT-15 colon, with HS 578T breast and with HT29 colon was over 100 µM in each case. The TGI is 5.43 µM with IGROV1 ovarian; over 100 µM with K-562 leukemia; over 100 µM in the test on LOX IMVI melanoma; over 100 µM in the test on MDA-MB-435; over 100 µM with OVCAR-3 ovarian; over 100 µM in the test with OVCAR-4 ovarian. Further, the TGI in the test on OVCAR-8 ovarian, with PC-3 prostate, in the test with SF-295 CNS, in the test with SK-MEL-2 melanoma, in the test with SK-MEL-28 melanoma and in the test on SNB-75 CNS was over 100 µM in each case. The TGI in the test with TK-10 renal was over 100 µM.
